Test results as given in paper PMC10251204, “Medicago Sativa Defensin1 as a tumor sensitizer for improving chemotherapy: translation from anti-fungal agent to a potential anti-cancer agent” (Frontiers in Oncology, 2023).
Entries after “also recorded” stand apart in the source; their conditions may differ. Bridges are numbered along the chain shown (N, C = ends). Where no end group is shown, it is not given here.

Key:
[1] = test system: resistant TNBC MDA-MB-231R cells; assay: NBD-MsDef1 uptake by confocal microscopy, MDA-MB-231R; type: cell-based; details: 15 min at 37°C, 20, 6.6 or 2.2 µg/ml, N=4
[2] = test system: normal epithelial breast cells (MCF-10A); assay: NBD-MsDef1 uptake by confocal microscopy, MCF-10A; type: cell-based; parameters: dose or concentration left out as unconfirmed; details: even at 5-fold higher dose
[3] = test system: fibroblasts cells; assay: NBD-MsDef1 uptake by confocal microscopy, fibroblasts; type: cell-based; parameters: dose or concentration left out as unconfirmed; details: even at 5-fold higher dose
[4] = IC50 of NBD-labelled peptide, cell line not stated; type: cell-based; details: similar to native MsDef1
Procedure: (§1) Cell viability was evaluated by the standard MTT ([…])-2,5-diphenyltetrazolium bromide, Sigma) method. All cancer cells (MDA-MB-231, MCF-7, MCF-R, Hela, MCF-10A epithelial breast cells, induced pluripotent stem cells derived cardiomyocytes (iPSc) were added to the wells of 96-well flat-bottom plates at the density of 2×10^4 per well, allowed to attach overnight, and treated with different concentrations of MsDef1 (1-100 µM). After 24 h, 10 µl of MTT solution was added to each well and the plate was incubated at 37°C for 3 h. After removing the media, 200 µl of isopropanol were added to dissolve the crystals. Absorbance was read at 550 nm in an ELISA plate reader (Sunrise, Tecan, Milan, Italy), and the results are expressed as relative change with respect to the controls set as 100%. For cardiomyocytes, human iPSCs were used (Ionic Transports, St Louis).

[5] = test system: ovarian SKOV3 cells; assay: NBD-MsDef1 uptake by confocal microscopy, SKOV3; type: cell-based; details: 15 min at 37°C, 20, 6.6 or 2.2 µg/ml, N=4
[6] = test system: normal cells; assay: Cell viability, normal cells; type: cell-based; details: Figure 6B
Procedure: as §1

[7] = test system: MDA-MB-231 cells; assay: cells; type: cell-based; details: Homo sapiens, Doxorubicin dose response alone or combined with Def1 at 20 μM, N=4, unit inferred, read-out: IC50 (Figure 6C)
[8] = test system: MCF-7R cells; assay: Cell death / apoptosis (TUNEL) synergy study, MCF-7R; type: cell-based; details: MsDef1 ~25 μM, Doxorubicin; combination = MsDef1 pretreatment followed by Doxorubicin; N=4
Procedure: (§2) Doxorubicin resistant MCF-7R and MDA-MB-231R cells were grown in DMEM 10% FBS with increasing concentrations of Doxorubicin as described by Bielawski et al. ([40]). Cells were seeded and exposed to increasing concentrations of Doxorubicin (10 nM to 100 nM). MCF-7 or MDA-MB-231 cells were seeded in cell culture flasks and after 24 h, cells were trypsinized, counted viable cells and reseeded into a new culture flask before adding Doxorubicin again.
(§3) The percentage of apoptotic cells was determined by using TUNEL assay according to the manufacturer protocol. Briefly, cells were fixed with 1% paraformaldehyde at 4 °C, followed by two washing with PBS. Cold 70% ethanol was added to the cell pellet. Cells were then incubated at −20°C for permeabilization. After washing with PBS, cells were incubated with staining solution containing TdT enzyme and fluorescein-dUTP for 60 min at 37°C. Samples were washed with rinse buffer and resuspended in […] of propidium iodise/RNase solution for flow cytometry analysis.

[9] = test system: MDA-MB-231R cells; assay: Cell death / apoptosis (TUNEL) synergy study, MDA-MB-231R; type: cell-based; details: MsDef1 ~25 μM, Doxorubicin; combination = MsDef1 pretreatment followed by Doxorubicin; N=4
Procedure: as §2, §3

[10] = molecular target: pepsin (Sus scrofa, UniProt P00791); details: SGF (200 mg NaCl, 0.2% pepsin, pH 2), 500 μL, 37°C, 2 min preincubation, 25 μL of 5 mg/ml protein, SDS PAGE read-out, n=4
Procedure: The Simulated Gastric Fluid (SGF) assay was performed as described by Fu et al., 2002 with some modification. Tests were performed in 500 μL of SGF (200 mg NaCl, 0.2% pepsin, pH 2) in glass tubes in a 37°C water bath with continuous stirring of the enzyme reaction. […] Five mg/ml bovine serum albumin (minimum 98%, A-7030, Sigma Aldrich) in ultrapure water was used as the positive control for pepsin digestion. Protein samples were analyzed for degradation by SDS PAGE followed by staining for 1 h and extensive washing with ultrapure water.

[11] = test system: GlcCer and Trx positive cancer cells; details: read-out: inhibitory activity IC50 against several cancer cells
Procedure: as §1

pepsin, sequence (P00791 60-385): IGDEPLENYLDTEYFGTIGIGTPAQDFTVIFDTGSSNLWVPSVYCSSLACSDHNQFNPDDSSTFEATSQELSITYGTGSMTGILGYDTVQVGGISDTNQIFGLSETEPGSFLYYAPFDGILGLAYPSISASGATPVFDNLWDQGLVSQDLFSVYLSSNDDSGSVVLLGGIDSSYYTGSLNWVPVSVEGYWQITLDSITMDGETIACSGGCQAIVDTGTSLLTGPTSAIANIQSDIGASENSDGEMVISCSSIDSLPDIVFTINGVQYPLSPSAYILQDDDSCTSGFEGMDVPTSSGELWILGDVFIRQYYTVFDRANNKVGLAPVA

In the case of “6-((N-(7-nitrobenz-2-oxa-1, 3-diazol-4-yl) amino) hexanoyl -MsDef1 [NBD-MsDef1]”, the cell uptake [1] is reported as “significant uptake”, the cell uptake [2] is reported as “did not take up” and the cell uptake [3] is reported as “did not take up”. For the same compound, the IC50 [4] was 12 µM and the cell uptake [5] was “significant uptake”.
With `COc1cccc2c1C(=O)c1c(O)c3c(c(O)c1C2=O)C[C@@](O)(C(=O)CO)C[C@@H]3O[C@H]1C[C@H](N)[C@H](O)[C@H](C)O1` [Doxorubicin] the “dose at which normal cells are killed / still safe” value [6] was ~ 9.6 μM, the IC50 [7] was 0.396 µM and the cell death [8] was ~ 30%. The cell death [9] was ~ 30%.
In the case of “RTCENLADKYRGPCFSGCDTHCTTKENAVSGRCRDDFRCWCTKRC (disulfide 3-45, 14-33, 18-39, 22-41) [MsDef1]”, the “stability to digestion in SGF” value [10] is reported as “remained undigested; also recorded: no significant change in the intensity of the bands” and the IC50 [11] is reported as 10 to 15 µM.
